Measured values taken from ChEMBL document CHEMBL1136892, “New 1alpha,25-dihydroxy-19-norvitamin D(3) compounds constrained in a single A-ring conformation: synthesis of the analogues by ring-closing metathesis route and their biological evaluation” (J Med Chem, 2009).

Experiments:
Rattus norvegicus [1] = test: Effect on bone calcium mobilization in vitamin D-deficient weanling Sprague-Dawley rat assessed as serum calcium level at 35100 pmol/day, ip administered as 4 consecutive daily doses measured 24 hrs after last dose; type: functional
Rattus norvegicus [2] = test: Effect on intestinal calcium transport in vitamin D-deficient weanling Sprague-Dawley rat assessed as increase in ratio of serosal to mucosal calcium level at 780 pmol/day, ip administered as 4 consecutive daily doses measured 24 hrs after last dose by everted gut sac method; type: functional
Rattus norvegicus [3] = test: Effect on intestinal calcium transport in vitamin D-deficient weanling Sprague-Dawley rat assessed as increase in ratio of serosal to mucosal calcium level at 7020 pmol/day, ip administered as 4 consecutive daily doses measured 24 hrs after last dose by everted gut sac method; type: functional
Rattus norvegicus [4] = test: Effect on intestinal calcium transport in vitamin D-deficient weanling Sprague-Dawley rat assessed as increase in ratio of serosal to mucosal calcium level at 35100 pmol/day, ip administered as 4 consecutive daily doses measured 24 hrs after last dose by everted gut sac method; type: functional
Vitamin D3 receptor = target: T1, Vitamin D3 receptor (Rattus norvegicus, UniProt P13053); test: Displacement of [3H]1-alpha,25-(OH)2D3 from rat recombinant full length VDR
T1 sequence (P13053 whole entry): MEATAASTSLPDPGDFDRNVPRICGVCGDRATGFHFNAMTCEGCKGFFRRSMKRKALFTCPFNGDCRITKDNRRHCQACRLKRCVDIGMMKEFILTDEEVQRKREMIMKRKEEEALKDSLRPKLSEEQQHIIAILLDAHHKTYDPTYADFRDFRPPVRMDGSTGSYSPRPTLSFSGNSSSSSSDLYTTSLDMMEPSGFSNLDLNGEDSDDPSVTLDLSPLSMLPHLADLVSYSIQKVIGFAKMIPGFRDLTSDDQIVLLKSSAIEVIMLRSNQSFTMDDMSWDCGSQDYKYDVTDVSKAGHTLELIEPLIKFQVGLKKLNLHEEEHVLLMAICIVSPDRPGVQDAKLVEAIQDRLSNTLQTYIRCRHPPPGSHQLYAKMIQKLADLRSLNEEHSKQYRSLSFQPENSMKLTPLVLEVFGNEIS

[5] = target: T2, Vitamin D3 receptor (Rattus norvegicus) (UniProt P13053); test: Ratio of Ki of the drug to Ki of [3H]1-alpha,25-(OH)2D3 for rat recombinant full length VDR
T2 sequence (whole entry): T1 sequence (P13053 whole entry)

HL-60 [6] = test: Induction of human HL60 cell differentiation into monocytes after 4 days by NBT reduction assay; type: functional
HL-60 [7] = test: Ratio of ED50 of drug to ED50 of [3H]1-alpha,25-(OH)2D3 for induction of human HL60 cell differentiation into monocytes by NBT reduction assay; type: functional
[8] = target: T2, Vitamin D3 receptor (Rattus norvegicus); test: Activity at VDR in rat osteosarcoma 17/2.8 cells assessed as transcriptional activation of 24-hydroxylase gene promoter after 16 hrs by luciferase reporter gene assay
[9] = target: T2, Vitamin D3 receptor (Rattus norvegicus); test: Ratio of ED50 of compound to ED50 of [3H]1-alpha,25-(OH)2D3 for VDR in rat osteosarcoma 17/2.8 cells by 24-hydroxylase gene transcriptional activation assay
Rattus norvegicus [10] = test: Effect on bone calcium mobilization in vitamin D-deficient weanling Sprague-Dawley rat assessed as serum calcium level at 780 pmol/day, ip administered as 4 consecutive daily doses measured 24 hrs after last dose; type: functional
Rattus norvegicus [11] = test: Effect on bone calcium mobilization in vitamin D-deficient weanling Sprague-Dawley rat assessed as serum calcium level at 7020 pmol/day, ip administered as 4 consecutive daily doses measured 24 hrs after last dose; type: functional
Rattus norvegicus [12] = test: Effect on intestinal calcium transport in vitamin D-deficient weanling Sprague-Dawley rat assessed as ratio of serosal to mucosal calcium level at 87 pmol/day, ip administered as 4 consecutive daily doses measured 24 hrs after last dose by everted gut sac method; type: functional
Rattus norvegicus [13] = test: Effect on intestinal calcium transport in vitamin D-deficient weanling Sprague-Dawley rat assessed as increase in ratio of serosal to mucosal calcium level at 260 pmol/day, ip administered as 4 consecutive daily doses measured 24 hrs after last dose by everted gut sac method; type: functional
Rattus norvegicus [14] = test: Effect on intestinal calcium transport in vitamin D-deficient weanling Sprague-Dawley rat assessed as increase in ratio of serosal to mucosal calcium level at 2340 pmol/day, ip administered as 4 consecutive daily doses measured 24 hrs after last dose by everted gut sac method; type: functional
Rattus norvegicus [15] = test: Effect on bone calcium mobilization in vitamin D-deficient weanling Sprague-Dawley rat assessed as serum calcium level at 87 pmol/day, ip administered as 4 consecutive daily doses measured 24 hrs after last dose; type: functional
Rattus norvegicus [16] = test: Effect on bone calcium mobilization in vitamin D-deficient weanling Sprague-Dawley rat assessed as serum calcium level at 260 pmol/day, ip administered as 4 consecutive daily doses measured 24 hrs after last dose; type: functional
Rattus norvegicus [17] = test: Effect on bone calcium mobilization in vitamin D-deficient weanling Sprague-Dawley rat assessed as serum calcium level at 2340 pmol/day, ip administered as 4 consecutive daily doses measured 24 hrs after last dose; type: functional

Ki (Vitamin D3 receptor) | Ratio Ki [5] | ED50 [8] | Ratio ED50 [9] | SMILES | Activity (Rattus norvegicus [1]) | Activity (Rattus norvegicus [2]) | Activity (Rattus norvegicus [3]) | Activity (Rattus norvegicus [4]) | ED50 (HL-60 [6]) | Ratio ED50 (HL-60 [7]) | Activity (Rattus norvegicus [10]) | Activity (Rattus norvegicus [11]) | Activity (Rattus norvegicus [12]) | Activity (Rattus norvegicus [13]) | Activity (Rattus norvegicus [14]) | Activity (Rattus norvegicus [15]) | Activity (Rattus norvegicus [16]) | Activity (Rattus norvegicus [17])
60 nM | 600 | 6 ×10⁻⁸ M | 300 | C=C1/C(=C\C=C2/CCC[C@]3(C)[C@@H]([C@H](C)CCCC(C)(C)O)CC[C@@H]23)C[C@H]2OCC=C2[C@@H]1O | 9.6 mg/dL | 11.3 mg/dL | 10.2 mg/dL | 8.7 mg/dL | 1 ×10⁻⁶ M | 330 | 4.3 mg/dL | 6.1 mg/dL |  |  |  |  |  | 
0.2 nM | 2 | 6 ×10⁻⁹ M | 30 | C=C1/C(=C\C=C2/CCC[C@]3(C)[C@@H]([C@H](C)CCCC(C)(C)O)CC[C@@H]23)C[C@@H](O)C2=CCO[C@H]12 |  | 9.7 mg/dL | 13.7 mg/dL |  | 3 ×10⁻⁸ M | 10 | 4.3 mg/dL | 4.6 mg/dL |  |  |  |  |  | 
 |  | 2 ×10⁻¹⁰ M |  | C=C1/C(=C\C=C2/CCC[C@]3(C)[C@@H]([C@H](C)CCCC(C)(C)O)CC[C@@H]23)C[C@@H](O)C[C@@H]1O [CALCITRIOL] | 9 mg/dL | 11.3 mg/dL | 10.2 mg/dL | 8.7 mg/dL | 3 ×10⁻⁹ M |  | 5.8 mg/dL | 7.9 mg/dL | 8.9 mg/dL | 12 mg/dL | 10.2 mg/dL | 4.9 mg/dL | 5.6 mg/dL | 7.3 mg/dL
